Results: US8008329B2 (Dong Wha Pharmaceutical Co., Ltd., priority 2008, dated 2011)
Marks after values point to notes of the source that are not given here.

Tested on: osteoclast differentiation
Assay: Osteoclast differentiation in co-culture of mouse bone marrow cells and ST2 cells, TRAP staining (Examples 8-9)
Format: cell-based
Conditions: for % number of osteoclast (vs. solvent control group): 0.1 μM each, day 7; for activity at 0.1 µM: Mus musculus, Osteoclast, 168 h, Individual treatment (compounds), day 7, read-out: % number of osteoclast (vs. solvent control group)
Protocol: The differentiation of osteoclast from mouse bone marrow cells was induced by using co-culture system, and inhibitory effect of the drug on osteoclast differentiation was evaluated by treatment of single or combination formulation. Co-culture was performed using mouse bone marrow cells and ST cells of bone marrow-derived stromal cell.
Femora and tibia were aseptically ectomized from 6˜8 week-old male ddY mice to harvest bone marrow cells by a general method using a syringe. The red blood cells were removed from the bone marrow cells, followed by centrifugation. The bone marrow cells were suspended in α-MEM medium supplemented with 10% fetal bovine serum, and the numbers of the eukaryotic cells in the harvested bone marrow cells were counted and then immediately used for a co-culture system.
ST2 cells (RIKEN Cell Bank, Tsukuba, Japan) were cultured in α-MEM medium supplemented with 10% fetal bovine serum until confluent. Then, these cells were diluted to a desired cell number, and used for the experiment.
The bone marrow cells (1×10^5 cells/well) and ST2 cells (3,000 cells/well) prepared in the above were plated in a 96-well plate using α-MEM medium supplemented with 10% fetal bovine serum. At this time, differentiation factors, 1α,25-dihydroxyvitamin D3 (10^−8 M, hereinbelow, referred to as vitamin D3) and dexamethasone (10^−8 M), were co-added to the medium to induce osteoclast differentiation. The medium was replaced with fresh media containing the differentiation factors every 2 to 3 days.
After 7 days, when multinucleated osteoclasts were observed, the medium was removed from the wells, and then the cells were fixed with PBS containing 10% Formalin. Tartrate-Resistant Acid Phosphatase (hereinbelow, referred to as TRAP) was used as a marker to measure the mature osteoclast in consideration of its characteristics showing a positive reaction to a TRAP staining solution. The TRAP staining solution was prepared in such the manner that a substrate, naphtol AS-MS phosphate and a coloring agent (Fast Red Violet LB salt) were dissolved in N,N-dimethylformamide. A 0.1 N NaHCO3 buffer solution containing 50 mM tartaric acid was added thereto, and the mixture was stored at a refrigerator prior to use as a staining solution. The osteoclasts with 6-7 or more nuclei showing a TRAP-positive reaction were counted under a microscope.
Alendronic acid was dissolved in distilled water at a concentration of 0.1 mM, and benzamidine derivatives were dissolved in DMSO at a concentration of 0.1 mM. All of them were diluted 1,000 fold with the differentiation media to a final concentration of 0.1 μM, respectively. In this connection, a control group was maintained in 0.1% DMSO.
As the above described, the sample substances and cells, which were diluted to the desired concentrations, were plated in 96-well plate, and co-cultured. On days 3 and 5 of culture, the media were replaced with fresh differentiation media containing the sample substances. On day 7 of culture, TRAP staining was performed to count the mature multinucleated osteoclast that was formed by differentiation. The mature osteoclasts with 6 or more nuclei were counted under a microscope. The results were expressed as a percentage (%) of the number of mature osteoclast observed in each experimental group, when the number of mature osteoclast in the control group (solvent only) was regarded as 100%. The experiment was performed with 4 wells per experimental group (n=4), and the results were expressed as mean value±standard deviation. In addition, the experiment was repeated at least two times, and Student t-test was applied for significant difference between experimental groups.
The experiment was performed in the same manner as in Example 8 to evaluate the effect of individual or combination treatment of risedronic acid and benzamidine derivatives of Formula 1 on osteoclast differentiation, except using 0.1 μM risedronic acid instead of 0.1 μM alendronic acid. […]

[1] = Combination treatment (alendronic acid + compounds)
[2] = Combination treatment (risedronic acid + compounds)

## CCCNc1nc(-c2ccc(OCCCCCOc3ccc(C(=N)NO)cc3)cc2)c(CC2CCCC2)s1 [Compound 111, N-hydroxy-4-{5-[4-(5-cyclopentylmethyl-2-propylamino-1,3-thiazol-4-yl)phenoxy]pentyloxy}-benzamidine]
[1]
  % number of osteoclast (vs. solvent control group): 51 ± 6.0%
[2]
  % number of osteoclast (vs. solvent control group): 32 ± 5.2^ac %
  activity at 0.1 µM: 76 ± 12.2%

## Cc1nc(-c2ccc(OCCCCCOc3ccc(C(=N)NO)cc3)cc2)c(CCN(CCO)CCO)s1 [Compound 225, N-hydroxy-4-{5-[4-(5-{2-[bis-(2-hydroxy-ethyl)-amino]-ethyl}-2-methyl-thiazol-4-yl)-phenoxy]-pentyloxy}-benzamidine]
[1]
  % number of osteoclast (vs. solvent control group): 50 ± 4.8^ab %
[2]
  % number of osteoclast (vs. solvent control group): 48 ± 4.9^ac %
  activity at 0.1 µM: 70 ± 7.1%

## CNc1nc(-c2ccc(OCCCCCOc3ccc(C(=N)NO)cc3)cc2)c(CN2CCOCC2)s1 [Compound 335, N-hydroxy-4-{5-[4-(2-methylamino-5-morpholin-4-ylmethyl-thiazol-4-yl)-phenoxy]-pentyloxy}-benzamidine]
[1]
  % number of osteoclast (vs. solvent control group): 41 ± 2.0^ab %
[2]
  % number of osteoclast (vs. solvent control group): 23 ± 5.0^ac %
  activity at 0.1 µM: 54 ± 0.9%

## Cc1nc(-c2ccc(OCCCCOc3ccc(C(=N)NO)cc3)cc2)c(C(C)C)s1 [Compound 194, N-hydroxy-4-{4-[4-(5-isopropyl-2-methyl-1,3-thiazol-4-yl)phenoxy]butoxy}-benzamidine]
[1]
  % number of osteoclast (vs. solvent control group): 33 ± 7.1^ab %
[2]
  % number of osteoclast (vs. solvent control group): 30 ± 7.0^ac %
  activity at 0.1 µM: 74 ± 10.1%

## CCc1sc(N(C)Cc2cccnc2)nc1-c1ccc(OCCCCCOc2ccc(C(=N)NO)cc2)cc1 [Compound 134, N-hydroxy-4-[5-(4-{5-ethyl-2-[methyl-(pyridin-3-ylmethyl)amino]-1,3-thiazol-4-yl}phenoxy)pentyloxy]-benzamidine]
[1]
  % number of osteoclast (vs. solvent control group): 39 ± 3.4^ab %
[2]
  % number of osteoclast (vs. solvent control group): 24 ± 4.0^ac %
  activity at 0.1 µM: 57 ± 4.3%

## Cc1nc(-c2ccc(OCCCCCNc3ccc(C(=N)NO)cc3)cc2)c(C(C)C)s1 [Compound 177, N-hydroxy-4-{5-[4-(5-isopropyl-2-methyl-1,3-thiazol-4-yl)-phenoxy]-pentylamino}-benzamidine]
[1]
  % number of osteoclast (vs. solvent control group): 34 ± 10.2^ab %
[2]
  % number of osteoclast (vs. solvent control group): 34 ± 5.7^ac %
  activity at 0.1 µM: 74 ± 10.1%

## CCN(C)c1nc(-c2ccc(OCCCCCOc3ccc(C(=N)NO)cc3)cc2)c(CN2CCOCC2)s1 [Compound 311, N-hydroxy-4-(5-{4-[2-(ethyl-methyl-amino)-5-morpholin-4-ylmethyl-thiazol-4-yl]-phenoxy}-pentyloxy)-benzamidine]
[1]
  % number of osteoclast (vs. solvent control group): 21 ± 4.2^b %
[2]
  % number of osteoclast (vs. solvent control group): 12 ± 5.8^ac %
  activity at 0.1 µM: 46 ± 10.7%

## N=C(NO)c1ccc(OCCCCCOc2ccc(-c3nc(N4CCOCC4)sc3CCN3CCSCC3)cc2)cc1 [Compound 273, N-hydroxy-4-(5-{4-[2-morpholin-4-yl-5-(2-thiomorpholin-4-yl-ethyl)-thiazol-4-yl]-phenoxy}-pentyloxy)-benzamidine]
[1]
  % number of osteoclast (vs. solvent control group): 25 ± 4.5^ab %
[2]
  % number of osteoclast (vs. solvent control group): 11 ± 2.9^ac %
  activity at 0.1 µM: 53 ± 3.4%

## CC(C)NCc1sc(N(C)CCN2CCOCC2)nc1-c1ccc(OCCCCCOc2ccc(C(=N)NO)cc2)cc1 [Compound 317, N-hydroxy-4-[5-(4-{5-(isopropylamino-methyl)-2-[methyl-(2-morpholin-4-yl-ethyl)-amino]-thiazol-4-yl}-phenoxy)-pentyloxy]-benzamidine]
[1]
  % number of osteoclast (vs. solvent control group): 18 ± 4.6^ab %
[2]
  % number of osteoclast (vs. solvent control group): 16 ± 3.2^ac %
  activity at 0.1 µM: 45 ± 3.2%

## Cc1nc(-c2ccc(OCCCCCOc3ccc(C(=N)NO)cc3)cc2)c(CCNC(C)(C)C)s1 [Compound 234, N-hydroxy-4-(5-{4-[5-(2-tert-butylamino-ethyl)-2-methyl-thiazol-4-yl]-phenoxy}-pentyloxy)-benzamidine]
[1]
  % number of osteoclast (vs. solvent control group): 30 ± 6.1^b %
[2]
  % number of osteoclast (vs. solvent control group): 22 ± 4.0^ac %
  activity at 0.1 µM: 44 ± 7.5%

## Cc1sc(NC(=N)N)nc1-c1ccc(OCCCCCOc2ccc(C(=N)NO)cc2)cc1 [Compound 59, N-hydroxy-4-{5-[4-(2-guanidino-5-methyl-1,3-thiazol-4-yl)phenoxy]pentyloxy}-benzamidine]
[1]
  % number of osteoclast (vs. solvent control group): 34 ± 2.2^ab %
[2]
  % number of osteoclast (vs. solvent control group): 33 ± 5.1^ac %
  activity at 0.1 µM: 55 ± 6.5%

## Cc1nc(-c2ccc(OCCCCCOc3ccc(C(=N)NO)cc3)cc2)c(CC2CCCC2)s1 [Compound 45, N-hydroxy-4-{5-[4-(5-cyclopentylmethyl-2-methyl-1,3-thiazol-4-yl)phenoxy]pentyloxy}-benzamidine]
[1]
  % number of osteoclast (vs. solvent control group): 49 ± 8.1^ab %
[2]
  % number of osteoclast (vs. solvent control group): 38 ± 11.9^ac %
  activity at 0.1 µM: 72 ± 4.6%

## CN(Cc1cccnc1)c1nc(-c2ccc(OCCCCCOc3ccc(C(=N)NO)cc3)cc2)c(CN2CCOCC2)s1 [Compound 321, N-hydroxy-4-(5-{4-[2-(methyl-pyridin-3-ylmethyl-amino)-5-morpholin-4-ylmethyl-thiazol-4-yl]-phenoxy}-pentyloxy)-benzamidine]
[1]
  % number of osteoclast (vs. solvent control group): 19 ± 4.1^ab %
[2]
  % number of osteoclast (vs. solvent control group): 18 ± 3.0^ac %
  activity at 0.1 µM: 48 ± 7%

## Cc1nc(-c2ccc(OCCCCCOc3ccc(C(=N)NO)cc3)cc2)c(CN2CCN(C)CC2)s1 [Compound 294, N-hydroxy-4-(5-{4-[2-methyl-5-(4-methyl-piperazin-1-ylmethyl)-thiazol-4-yl]-phenoxy}-pentyloxy)-benzamidine]
[1]
  % number of osteoclast (vs. solvent control group): 13 ± 2.4^ab %
[2]
  % number of osteoclast (vs. solvent control group): 9 ± 2.7^ac %
  activity at 0.1 µM: 27 ± 4.5%

## CCCN(CCC)CCc1sc(C2CCCCC2)nc1-c1ccc(OCCCCCOc2ccc(C(=N)NO)cc2)cc1 [Compound 251, N-hydroxy-4-(5-{4-[2-cyclohexyl-5-(2-dipropylamino-ethyl)-thiazol-4-yl]-phenoxy}-pentyloxy)-benzamidine]
[1]
  % number of osteoclast (vs. solvent control group): 20 ± 6.4^ab %
[2]
  % number of osteoclast (vs. solvent control group): 18 ± 4.4^ac %
  activity at 0.1 µM: 45 ± 9.6%

## CCc1sc(NC)nc1-c1ccc(OCCCCCOc2ccc(C(=N)NO)cc2)cc1 [Compound 96, N-hydroxy-4-{5-[4-(5-ethyl-2-methylamino-1,3-thiazol-4-yl)phenoxy]pentyloxy}-benzamidine]
[1]
  % number of osteoclast (vs. solvent control group): 55 ± 10.0%
[2]
  % number of osteoclast (vs. solvent control group): 34 ± 7.1^ac %
  activity at 0.1 µM: 74 ± 8.1%

## C=Cc1sc(N)nc1-c1ccc(OCCCCCOc2ccc(C(=N)NO)cc2)cc1 [Compound 78, N-hydroxy-4-{5-[4-(5-vinyl-2-amino-1,3-thiazol-4-yl)phenoxy]pentyloxy}-benzamidine]
[1]
  % number of osteoclast (vs. solvent control group): 36 ± 4.2^ab %
[2]
  % number of osteoclast (vs. solvent control group): 20 ± 1.7^a %
  activity at 0.1 µM: 67 ± 2.1%
